The data set relates to rodent carcinogenicity bioassays, tumor incidence. Kind of data set: CCRIS carcinogenicity studies. In a few lines:
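NCI-built, expert-reviewed records of carcinogenicity and related test outcomes (mutagenicity, tumor promotion/inhibition) compiled from published and report sources, historical span 1985-2011, not updated.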

Molecules are shown by their SMILES. Calls of active or inactive are those of the source. The rule behind the calls is not given here.

For the compound `Cc1cccc2cccnc12`, the carcinogen call (Species: MOUSE, Strain/Sex: CD-1/FEMALE, Route: INTRAPERITONEAL, Dose: 0, 0.25, 0.5, 1.0 UMOL IN DMSO TO NEWBORN MICE ON DAYS 1, 8 AND 15 OF LIFE RESPECTIVELY (TOTAL DOSE: 1.75 UMOL) (STUDY D, Dose: 0, 0.25, 0.5, 1.0 UMOL IN DMSO TO NEWBORN MICE ON DAYS 1, 8 AND 15 OF LIFE RESPECTIVELY (TOTAL DOSE: 1.75 UMOL) (STUDY D) is “inactive; negative”; the carcinogen call (Species: MOUSE, Strain/Sex: CD-1/MALE, Route: INTRAPERITONEAL, Dose: 0, 0.25, 0.5, 1.0 UMOL IN DMSO TO NEWBORN MICE ON DAYS 1, 8 AND 15 OF LIFE RESPECTIVELY (TOTAL DOSE: 1.75 UMOL) (STUDY D, Dose: 0, 0.25, 0.5, 1.0 UMOL IN DMSO TO NEWBORN MICE ON DAYS 1, 8 AND 15 OF LIFE RESPECTIVELY (TOTAL DOSE: 1.75 UMOL) (STUDY D) was “inactive; negative”; the carcinogen call (Species: RAT, Strain/Sex: F344/MALE,FEMALE, Route: ORAL, Dose: 0.05% IN DIET FOR 2 YR) is “inactive; negative”; the carcinogen call (Species: RAT, Strain/Sex: SPRAGUE-DAWLEY/MALE, Route: SUBCUTANEOUS, Dose: 0, 200 UMOL/KG IN DMSO INTO SUPRASCAPULAR AREA ON DAY 1 OF LIFE FOLLOWED BY 0, 100 UMOL 1/WK AT WK 2-7 THEN 0, 200 UMOL/, Dose: 0, 200 UMOL/KG IN DMSO INTO SUPRASCAPULAR AREA ON DAY 1 OF LIFE FOLLOWED BY 0, 100 UMOL 1/WK AT WK 2-7 THEN 0, 200 UMOL/) was “inactive; negative”; the carcinogen call (Species: SPRAGUE-DAWLEY/MALE, Strain/Sex: SPRAGUE-DAWLEY/FEMALE, Route: SUBCUTANEOUS, Dose: 0, 200 UMOL/KG IN DMSO INTO SUPRASCAPULAR AREA ON DAY 1 OF LIFE FOLLOWED BY 0, 100 UMOL 1/WK AT WK 2-7 THEN 0, 200 UMOL/, Dose: 0, 200 UMOL/KG IN DMSO INTO SUPRASCAPULAR AREA ON DAY 1 OF LIFE FOLLOWED BY 0, 100 UMOL 1/WK AT WK 2-7 THEN 0, 200 UMOL/) was “inactive; negative”.

Consider `Nc1ccc2cc3ccc(N)cc3nc2c1`, for which the carcinogen call reads like this: (Species: MOUSE, Strain/Sex: B6C3F1/FEMALE, Route: ORAL, Dose: 0, 200, 400 PPM IN DIET FOR 104 WK (STUDY DURATION: 104 WK), Dose: 0, 200, 400 PPM IN DIET FOR 104 WK (STUDY DURATION: 104 WK), Tumor Site: Type of Lesion: LIVER: HEPATOCELLULAR CARCINOMA) “equivocal”; (Species: MOUSE, Strain/Sex: B6C3F1/MALE, Route: ORAL, Dose: 0, 200, 400 PPM IN DIET FOR 104 WK (STUDY DURATION: 104 WK), Dose: 0, 200, 400 PPM IN DIET FOR 104 WK (STUDY DURATION: 104 WK), Tumor Site: Type of Lesion: LIVER: HEPATOCELLULAR CARCINOMA) “equivocal”; (Species: RAT, Strain/Sex: F344/FEMALE, Route: ORAL, Dose: 0, 300, 600 PPM IN DIET, Dose: 0, 300, 600 PPM IN DIET) “inactive; negative”; (Species: RAT, Strain/Sex: F344/MALE, Route: ORAL, Dose: 0, 300, 600 PPM IN DIET FOR 109 WK (STUDY DURATION: 109 WK), Dose: 0, 300, 600 PPM IN DIET FOR 109 WK (STUDY DURATION: 109 WK), Tumor Site: Type of Lesion: INTESTINE: LEIOMYOSARCOMA OR ADENOCARCINOMA OR SARCOMA) “equivocal”.

Consider `CC(=O)N1C(C)CN(N=O)CC1C` (stereo not given), for which the carcinogen call (Species: RAT, Strain/Sex: F344/FEMALE, Route: ORAL, Dose: 0, 130 MG/L IN DRINKING WATER 5 D/WK FOR 30 WK, STUDY DURATION: 30-40 WK, Dose: 0, 130 MG/L IN DRINKING WATER 5 D/WK FOR 30 WK, STUDY DURATION: 30-40 WK, Tumor Site: Type of Lesion: ESOPHAGUS: CARCINOMA, TONGUE: PAPILLOMA OR CARCINOMA) was “active; positive”.

With `c1ccc2n[nH]nc2c1`, the carcinogen call (Species: MOUSE, Strain/Sex: B6C3F1/FEMALE, Route: ORAL, Dose: 0, 11700, 23500 PPM IN DIET FOR 104 WK (STUDY DURATION: 106-109 WK), Dose: 0, 11700, 23500 PPM IN DIET FOR 104 WK (STUDY DURATION: 106-109 WK), Tumor Site: Type of Lesion: LUNG: ALVEOLAR/BRONCHIOLAR CARCINOMA) is given as “equivocal”; the carcinogen call (Species: MOUSE, Strain/Sex: B6C3F1/MALE, Route: ORAL, Dose: 0, 11700, 23500 PPM IN DIET FOR 104 WK (STUDY DURATION: 106-109 WK), Dose: 0, 11700, 23500 PPM IN DIET FOR 104 WK (STUDY DURATION: 106-109 WK)) was “inactive; negative”; the carcinogen call (Species: RAT, Strain/Sex: F344/FEMALE, Route: ORAL, Dose: 0, 6700, 12100 PPM IN DIET FOR 78 WK (STUDY DURATION: 105-106 WK), Dose: 0, 6700, 12100 PPM IN DIET FOR 78 WK (STUDY DURATION: 105-106 WK), Tumor Site: Type of Lesion: BRAIN: TUMOR) is given as “equivocal”; the carcinogen call (Species: RAT, Strain/Sex: F344/MALE, Route: ORAL, Dose: 0, 6700, 12100 PPM IN DIET FOR 78 WK (STUDY DURATION: 105-106 WK), Dose: 0, 6700, 12100 PPM IN DIET FOR 78 WK (STUDY DURATION: 105-106 WK), Tumor Site: Type of Lesion: BRAIN: TUMOR) was “equivocal”.

Consider `COc1ccc([C@H]2O[C@H]2C)cc1`, for which the carcinogen call is, setting by setting: (Species: MOUSE, Strain/Sex: B6C3F1/MALE, Route: INTRAPERITONEAL, Dose: 0, 0.25, 0.5 UMOL/G BW ONCE (STUDY DURATION: 10-11 MONTHS), Dose: 0, 0.25, 0.5 UMOL/G BW ONCE (STUDY DURATION: 10-11 MONTHS), Tumor Site: Type of Lesion: LIVER: HEPATOMA) “active; positive”; (Species: MOUSE, Strain/Sex: CD-1/FEMALE, Route: DERMAL, Dose: 0, 5 UMOL 1X/WK FOR 3 WK BEGINNING 24 HR POST FIRST TPA DOSE (2.5 UG IN 0.1 ML ACETONE), FOLLOWED BY 2.5 UG TPA IN 0.1 M, Tumor Site: Type of Lesion: SKIN: PAPILLOMA) “active; positive”.

For `Nc1ccc(Cc2ccc(N)c(Cl)c2)cc1Cl`, the carcinogen call is, setting by setting: (Species: MOUSE, Route: ORAL, Tumor Site: Type of Lesion: BLOOD VESSELS, LIVER) “active; positive”; (Species: RAT, Route: ORAL, Tumor Site: Type of Lesion: LIVER, LUNG) “active; positive”; (Species: RAT, Route: SUBCUTANEOUS, Tumor Site: Type of Lesion: LIVER, LUNG) “active; positive”; (Species: RAT, Strain/Sex: STRAIN-CD/FEMALE, Route: ORAL, Dose: 0, 1000 PPM IN PROTEIN-ADEQUATE (23%) DIET FOR 2 YR (STUDY DURATION: 2 YR), Tumor Site: Type of Lesion: LUNG: ADENOCARCINOMA) “active; positive”; (Species: RAT, Strain/Sex: STRAIN-CD/FEMALE, Route: ORAL, Dose: 0, 1000 PPM IN PROTEIN-DEFICIENT (7%) DIET FOR 16 MO (STUDY DURATION: 16 MO), Tumor Site: Type of Lesion: LUNG: ADENOCARCINOMA, MAMMARY GLAND: ADENOCARCINOMA) “active; positive”; (Species: RAT, Strain/Sex: STRAIN-CD/MALE, Route: ORAL, Dose: 0, 1000 PPM IN PROTEIN-ADEQUATE (23%) DIET FOR 2 YR (STUDY DURATION: 2 YR), Tumor Site: Type of Lesion: LUNG: ADENOCARCINOMA) “active; positive”. Further, the carcinogen call (Species: RAT, Strain/Sex: STRAIN-CD/MALE, Route: ORAL, Dose: 0, 1000 PPM IN PROTEIN-DEFICIENT (7%) DIET FOR 16 MO (STUDY DURATION: 16 MO), Tumor Site: Type of Lesion: LUNG: ADENOCARCINOMA, LIVER: HEPATOCELLULAR ADENOMA, HEPATOCELLULAR CARCINOMA) was “active; positive”.

On to `CC(=O)OC/C=C(\C)CCC=C(C)C`, for which the carcinogen call reads like this: (Species: MOUSE, Strain/Sex: B6C3F1/MALE, Route: GAVAGE, Dose: 0, 500 MG/KG OF FOOD GRADE (29% CITRONELLYL ACETATE) IN CORN OIL 5D/WK FOR 102 WK (STUDY DURATION: 104 WK)) “inactive; negative”; (Species: RAT, Strain/Sex: F344/FEMALE, Route: GAVAGE, Dose: 0, 1000, 2000 MG/KG OF FOOD GRADE (29% CITRONELLYL ACETATE) IN CORN OIL 5D/WK FOR 103 WK (STUDY DURATION: 104 WK), Dose: 0, 1000, 2000 MG/KG OF FOOD GRADE (29% CITRONELLYL ACETATE) IN CORN OIL 5D/WK FOR 103 WK (STUDY DURATION: 104 WK)) “inactive; negative”; (Species: RAT, Strain/Sex: F344/MALE, Route: GAVAGE, Dose: 0, 1000 MG/KG OF FOOD GRADE (29% CITRONELLYL ACETATE) IN CORN OIL 5D/WK FOR 103 WK (STUDY DURATION: 104 WK)) “inactive; negative”.

Consider `CN(C)C(=O)Cl`, for which the carcinogen call by setting is: (Species: MOUSE, Route: DERMAL, Tumor Site: Type of Lesion: INTEGUMENTARY SYSTEM (SKIN)) “active; positive”; (Species: MOUSE, Route: INTRAPERITONEAL, SUBCUTANEOUS, Tumor Site: Type of Lesion: INJECTION SITE) “active; positive”.

With `C=Cc1ccncc1`, under “Species: MOUSE, Strain/Sex: STRAIN-A/FEMALE, Route: INTRAPERITONEAL, Dose: 0, 10 UMOL IN 0.1 ML OLIVE OIL 3/WK FOR 20 DOSES (TOTAL DOSE: 200 UMOL) (STUDY DURATION: 27 WK)”, the carcinogen call is “inactive; negative”.

Take `Brc1cc(Br)c2cccnc2c1`: the carcinogen call (Species: RAT, Strain/Sex: F344/FEMALE, Route: ORAL, Dose: 0.1% IN DIET FOR 2 YR) was “inactive; negative”.

The values are drawn from PubChem BioAssay AID1259411 (Chemical Carcinogenesis Research Information System (CCRIS), 2018).
